Assay results from ChEMBL document CHEMBL1201862, “PubChem BioAssay data set” (2004).
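These data come from cells grown in 96-well plates and exposed to compound for 48 hours at five concentrations. The concentration for 50% growth inhibition is given as GI50.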 The source made the active and inactive calls. Cut-off read from the data, not from the text of the source: active = GI50 up to about 1.1 µM and inactive = higher.

Tests used:
Experiment in all cases: NCI-60 cell line screen, 48 h
SK-OV-3 = system: SK-OV-3
SK-MEL-28 = system: SK-MEL-28
PC-3 = system: PC-3
MCF7 = system: MCF7
M14 = system: M14
RXF 393 = system: RXF 393
UO-31 = system: UO-31
DU-145 = system: DU-145
U-251 = system: U-251
MOLT-4 = system: MOLT-4
OVCAR-4 = system: OVCAR-4
HOP-92 = system: HOP-92
NCI-H23 = system: NCI-H23
RPMI-8226 = system: RPMI-8226
SR = system: SR
MDA-MB-435 = system: MDA-MB-435
SK-MEL-5 = system: SK-MEL-5
NCI-H522 = system: NCI-H522
SF-539 = system: SF-539
SW-620 = system: SW-620

| Compound | GI50 (SK-OV-3) | GI50 (SK-MEL-28) | GI50 (PC-3) | GI50 (MCF7) | GI50 (M14) | GI50 (RXF 393) | GI50 (UO-31) | GI50 (DU-145) | GI50 (U-251) | GI50 (MOLT-4) | GI50 (OVCAR-4) | GI50 (HOP-92) | GI50 (NCI-H23) | GI50 (RPMI-8226) | GI50 (SR) | GI50 (MDA-MB-435) | GI50 (SK-MEL-5) | GI50 (NCI-H522) | GI50 (SF-539) | GI50 (SW-620) |
| --- | --- | --- | --- | --- | --- | --- | --- | --- | --- | --- | --- | --- | --- | --- | --- | --- | --- | --- | --- | --- |
| Cc1c([N+](=O)[O-])oc2ccc3ccccc3c12 | 20.8 µM (inactive) | > 100 µM (inactive) | 86.9 µM (inactive) | 10.3 µM (inactive) | 21.5 µM (inactive) | 21.4 µM (inactive) | 34.6 µM (inactive) | 7.74 µM (inactive) | 65.6 µM (inactive) | 2.58 µM (inactive) | 47.5 µM (inactive) | > 100 µM (inactive) | 11.2 µM (inactive) | 9.33 µM (inactive) | 2.9 µM (inactive) | 12.4 µM (inactive) | 5.4 µM (inactive) | 3.86 µM (inactive) | 28.2 µM (inactive) | 20.2 µM (inactive) |
| Cc1ccc(S(=O)(=O)NNC(=O)c2cc(C)ccc2NC(=O)C23CC4CC(CC(C4)C2)C3)cc1 | 22.6 µM (inactive) | – | 34.5 µM (inactive) | 37.2 µM (inactive) | 84.7 µM (inactive) | 25.4 µM (inactive) | 21.6 µM (inactive) | 29.6 µM (inactive) | 27.6 µM (inactive) | > 100 µM (inactive) | 27.7 µM (inactive) | 21.6 µM (inactive) | 36.1 µM (inactive) | > 100 µM (inactive) | 84.5 µM (inactive) | 61.9 µM (inactive) | 61.5 µM (inactive) | 20.2 µM (inactive) | 52.1 µM (inactive) | 92.9 µM (inactive) |
| CCOC(=O)C1C(O)CC2c3ccccc3-c3ccccc3C21 (configuration not stated) | 21.2 µM (inactive) | > 100 µM (inactive) | > 100 µM (inactive) | 49.5 µM (inactive) | > 100 µM (inactive) | 29.3 µM (inactive) | > 100 µM (inactive) | > 100 µM (inactive) | 23.8 µM (inactive) | > 100 µM (inactive) | > 100 µM (inactive) | 20.1 µM (inactive) | 42.5 µM (inactive) | > 100 µM (inactive) | > 100 µM (inactive) | 41.8 µM (inactive) | 50.5 µM (inactive) | 35.4 µM (inactive) | – | 48.4 µM (inactive) |
| C=CC[C@]12C[C@@H](C(=O)OC)N(C(=O)OC)[C@H]1N(S(=O)(=O)c1ccccc1)c1ccccc12 | 35.6 µM (inactive) | > 100 µM (inactive) | 34.6 µM (inactive) | 41.3 µM (inactive) | – | 26 µM (inactive) | 56 µM (inactive) | 33.5 µM (inactive) | 61.9 µM (inactive) | 33 µM (inactive) | 47.1 µM (inactive) | 42.6 µM (inactive) | 34.1 µM (inactive) | 44.3 µM (inactive) | 38.4 µM (inactive) | 28.2 µM (inactive) | 58.5 µM (inactive) | 42.3 µM (inactive) | > 100 µM (inactive) | > 100 µM (inactive) |
| O=[N+]([O-])c1cc(Br)cc2cc(Cl)cnc12 | 86.9 µM (inactive) | > 100 µM (inactive) | > 100 µM (inactive) | 35.5 µM (inactive) | > 100 µM (inactive) | 71.8 µM (inactive) | > 100 µM (inactive) | > 100 µM (inactive) | > 100 µM (inactive) | > 100 µM (inactive) | > 100 µM (inactive) | 1.02 µM (active) | > 100 µM (inactive) | > 100 µM (inactive) | > 100 µM (inactive) | > 100 µM (inactive) | 81.8 µM (inactive) | > 100 µM (inactive) | > 100 µM (inactive) | 14.5 µM (inactive) |
| COc1ccc(N)c(C(=O)CCNC(C)=O)c1 [KINURENAMINE] | > 100 µM (inactive) | – | > 100 µM (inactive) | > 100 µM (inactive) | > 100 µM (inactive) | > 100 µM (inactive) | > 100 µM (inactive) | > 100 µM (inactive) | > 100 µM (inactive) | > 100 µM (inactive) | > 100 µM (inactive) | > 100 µM (inactive) | > 100 µM (inactive) | > 100 µM (inactive) | > 100 µM (inactive) | > 100 µM (inactive) | > 100 µM (inactive) | > 100 µM (inactive) | > 100 µM (inactive) | > 100 µM (inactive) |
| CC(=O)O[C@H]1CC[C@@]2(C)C(=CC[C@H]3[C@@H]4CC[C@H](c5cc(C(F)(F)F)n(C(C)=O)n5)[C@@]4(C)CC[C@@H]32)C1 | 12.5 µM (inactive) | 13.6 µM (inactive) | 4.47 µM (inactive) | 5.87 µM (inactive) | 8.51 µM (inactive) | 5.68 µM (inactive) | 1.67 µM (inactive) | 11.4 µM (inactive) | 4.79 µM (inactive) | 2.47 µM (inactive) | 3.31 µM (inactive) | 1.22 µM (inactive) | 6.05 µM (inactive) | 2.8 µM (inactive) | 3.98 µM (inactive) | 9.27 µM (inactive) | 3.45 µM (inactive) | 17.1 µM (inactive) | 6.47 µM (inactive) | 12.9 µM (inactive) |
| Clc1ccccc1/C=C/c1nsc(/C=C/c2ccccc2Cl)n1 | 70.1 µM (inactive) | > 100 µM (inactive) | 30.1 µM (inactive) | 32 µM (inactive) | 70.6 µM (inactive) | > 100 µM (inactive) | > 100 µM (inactive) | > 100 µM (inactive) | 34.8 µM (inactive) | 33.5 µM (inactive) | 81.7 µM (inactive) | > 100 µM (inactive) | – | 31.3 µM (inactive) | 22.1 µM (inactive) | 42.6 µM (inactive) | 36.1 µM (inactive) | 33.1 µM (inactive) | 78.5 µM (inactive) | – |
| CCN(CC)CCCNc1nnc(C)c2[nH]c3ccccc3c12 | 11 µM (inactive) | 18.7 µM (inactive) | 12.1 µM (inactive) | 3.61 µM (inactive) | 16 µM (inactive) | 17.7 µM (inactive) | 37.2 µM (inactive) | 18.9 µM (inactive) | 13.4 µM (inactive) | 4.1 µM (inactive) | – | 6.9 µM (inactive) | 15.5 µM (inactive) | 23.5 µM (inactive) | 7.13 µM (inactive) | 11.6 µM (inactive) | 14.6 µM (inactive) | 5.7 µM (inactive) | 2.28 µM (inactive) | 9.2 µM (inactive) |
| C/C(=N\NC(=S)N(C)C)c1nc2cccnc2[nH]1 | 0.413 µM (active) | 1.03 µM (active) | 0.698 µM (active) | 1.05 µM (active) | 0.547 µM (active) | 0.596 µM (active) | 0.348 µM (active) | 0.504 µM (active) | 0.494 µM (active) | 0.406 µM (active) | 0.499 µM (active) | 0.275 µM (active) | – | 2.07 µM (inactive) | 0.679 µM (active) | 0.762 µM (active) | 0.387 µM (active) | 1.53 µM (inactive) | 0.536 µM (active) | 0.883 µM (active) |
| CC(C)CCCC(C)[C@H]1CCC2[C@@H]3CCC4Cc5nc6c(nc5C[C@]4(C)C3CC[C@@]21C)CC1CC[C@@H]2C(C[C@@H](O)[C@@]3(C)C2C[C@@H]2OC4(CCC(C)CO4)C(C)[C@@H]23)[C@@]1(C)C6 (some centres not stated) | 94.4 µM (inactive) | > 100 µM (inactive) | > 100 µM (inactive) | > 100 µM (inactive) | > 100 µM (inactive) | > 100 µM (inactive) | – | > 100 µM (inactive) | > 100 µM (inactive) | > 100 µM (inactive) | > 100 µM (inactive) | > 100 µM (inactive) | > 100 µM (inactive) | > 100 µM (inactive) | > 100 µM (inactive) | > 100 µM (inactive) | > 100 µM (inactive) | > 100 µM (inactive) | > 100 µM (inactive) | > 100 µM (inactive) |
| CN(/N=C(\C(=O)O)c1ccccc1)C1=NCCCN1 | > 100 µM (inactive) | > 100 µM (inactive) | > 100 µM (inactive) | > 100 µM (inactive) | – | > 100 µM (inactive) | > 100 µM (inactive) | > 100 µM (inactive) | > 100 µM (inactive) | > 100 µM (inactive) | > 100 µM (inactive) | 80.9 µM (inactive) | > 100 µM (inactive) | > 100 µM (inactive) | > 100 µM (inactive) | > 100 µM (inactive) | > 100 µM (inactive) | > 100 µM (inactive) | > 100 µM (inactive) | > 100 µM (inactive) |
| COc1ccc2nc3cc(Cl)ccc3c(NCCCN(Cc3cc(OC)c(OC)c(OC)c3)Cc3cc(OC)c(OC)c(OC)c3)c2c1 | 17.1 µM (inactive) | 16.4 µM (inactive) | 10.4 µM (inactive) | 13.6 µM (inactive) | 1.78 µM (inactive) | 3.38 µM (inactive) | 10.6 µM (inactive) | 12.8 µM (inactive) | 4.32 µM (inactive) | 1.34 µM (inactive) | – | 10.1 µM (inactive) | > 10 µM (inactive) | 3.07 µM (inactive) | 2.31 µM (inactive) | > 10 µM (inactive) | 1.29 µM (inactive) | 9.48 µM (inactive) | 2.2 µM (inactive) | 1.14 µM (inactive) |
| Nc1ncnc2oc(-c3cccs3)nc12 | – | > 100 µM (inactive) | > 100 µM (inactive) | > 100 µM (inactive) | > 100 µM (inactive) | > 100 µM (inactive) | > 100 µM (inactive) | > 100 µM (inactive) | > 100 µM (inactive) | – | > 100 µM (inactive) | > 100 µM (inactive) | > 100 µM (inactive) | > 100 µM (inactive) | > 100 µM (inactive) | > 100 µM (inactive) | > 100 µM (inactive) | > 100 µM (inactive) | > 100 µM (inactive) | > 100 µM (inactive) |
